{"source": "patent US11377425B1", "about": "“Small molecule modulators of IL-17” (LEO Pharma A/S, priority 2018, dated 2022)"}
{"biological_target": "T1, human IL-17AA (Homo sapiens, UniProt Q16552)", "T1 construct": "host or cells: HEK (human embryonic kidney) cells", "T1 sequence (Q16552 24-155)": "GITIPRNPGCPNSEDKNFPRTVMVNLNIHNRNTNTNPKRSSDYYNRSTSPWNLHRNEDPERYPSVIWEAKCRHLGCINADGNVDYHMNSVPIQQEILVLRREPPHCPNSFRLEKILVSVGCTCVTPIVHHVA", "assay": "IL-8 release assay in human epithelial keratinocytes adult (HEKa)", "type": "cell-based", "details": "HEKa cells, 3 ng/mL HEK-human IL-17AA + 10 ng/mL human TNFalpha; read-out: Rel EC50 IL-8 release assay", "summary_of_the_method": "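Adult human epidermal keratinocytes stimulated 68-72 h at 37 °C with 3 ng/mL HEK-derived human IL-17AA plus 10 ng/mL TNF-alpha (final) in the presence of compound; TNF-alpha alone defines 100% inhibition. Secreted IL-8 measured by HTRF as percent of controls; relative IC50/Emax from four-parameter fit (r^2>0.9), cytotoxicity by PrestoBlue.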", "units": {"EC50": "nM"}}
{"compound": "Cc1n[nH]c(C(C)(C)O)c1-c1ccc(NC(=O)[C@@H](NC(=O)c2ccnn2C)C(c2ccccc2)c2ccccc2)cc1", "note": "[Example 435, N-[(1S)-1-benzhydryl-2-[4-[5-(1-hydroxy-1-methyl-ethyl)-3-methyl-1H-pyrazol-4-yl]anilino]-2-oxo-ethyl]-2-methyl-pyrazole-3-carboxamide]", "EC50": "100 to 1000"}
{"compound": "CCn1nccc1C(=O)N[C@H](C(=O)Nc1ccc(-c2c(C)n[nH]c2C)cc1)[C@@H]1CC2(CC2)CCC1(F)F", "note": "[Example 180, N-[(1S)-1-[(7S)-6,6-difluorospiro[2.5]octan-7-yl]-2-[4-(3,5-dimethyl-1H-pyrazol-4-yl)anilino]-2-oxo-ethyl]-2-ethyl-pyrazole-3-carboxamide]", "EC50": "< 100"}
{"compound": "Cc1n[nH]c(C)c1-c1ccc(NC(=O)[C@@H](NC(=O)c2ccnn2C(C)C)C2CCC3(CC2)CC3)cc1", "note": "[Example 112, N-[(1S)-2-[4-(3,5-dimethyl-1H-pyrazol-4-yl)anilino]-2-oxo-1-spiro[2.5]octan-6-yl-ethyl]-2-isopropyl-pyrazole-3-carboxamide]", "EC50": "< 100"}
{"compound": "CCCn1nccc1C(=O)N[C@H](C(=O)Nc1ccc(-c2c(C)n[nH]c2C)cc1)C(C1CC1)C1CC1", "note": "[Example 133, N-[(1S)-1-(dicyclopropylmethyl)-2-[4-(3,5-dimethyl-1H-pyrazol-4-yl)anilino]-2-oxo-ethyl]-2-propyl-pyrazole-3-carboxamide]", "EC50": "< 100"}
{"compound": "Cc1n[nH]c(C)c1-c1ccc(NC(=O)[C@@H](NC(=O)c2ccnn2C)C2CC2(C)C)cc1", "note": "(single isomer, unassigned) [Example 224]", "EC50": "> 1000"}
{"compound": "Cc1n[nH]c(C)c1-c1ccc(NC(=O)[C@@H](NC(=O)c2ccnn2[C@@H](C)CO)[C@@H]2C[C@H](C)C[C@H](C)C2)cc1", "note": "[Example 141, N-[(1S)-1-[(3R,55)-3,5-dimethylcyclohexyl]-2-[4-(3,5-dimethyl-1H-pyrazol-4-yl)anilino]-2-oxo-ethyl]-2-[(1S)-2-hydroxy-1-methyl-ethyl]pyrazole-3-carboxamide]", "EC50": "< 100"}
{"compound": "Cc1n[nH]c(C)c1-c1ccc(NC(=O)C(NC(=O)c2ccnn2[C@@H](C)CO)C2CCCCCCC2)cc1", "note": "(single isomer, unassigned) [Example 150]", "EC50": "> 1000"}
{"compound": "Cc1n[nH]c(C)c1-c1ccc(NC(=O)C(NC(=O)c2ccnn2C)C(c2ccccc2)C2CCC2)cc1", "note": "(single isomer, unassigned) [Example 300, N-[1-[cyclobutyl(phenyl)methyl]-2-[4-(3,5-dimethyl-1H-pyrazol-4-yl)anilino]-2-oxo-ethyl]-2-methyl-pyrazole-3-carboxamide]", "EC50": "> 1000"}
{"compound": "Cc1noc(CO)c1-c1ccc(NC(=O)[C@@H](NC(=O)c2ccnn2C(C)C)C(C2CC2)C2CC2)cc1", "note": "[Example 409, N-[(1S)-1-(dicyclopropylmethyl)-2-[4-[5-(hydroxymethyl)-3-methyl-isoxazol-4-yl]anilino]-2-oxo-ethyl]-2-isopropyl-pyrazole-3-carboxamide]", "EC50": "100 to 1000"}
{"compound": "Cc1n[nH]c(C)c1-c1ccc(NC(=O)[C@@H](NC(=O)C2(F)CC2)C(C2CC2)C2CC2)cc1O", "note": "[Example 415, N-[(1S)-1-(dicyclopropylmethyl)-2-[4-(3,5-dimethyl-1H-pyrazol-4-yl)-3-hydroxy-anilino]-2-oxo-ethyl]-1-fluoro-cyclopropanecarboxamide]", "EC50": "100 to 1000"}
{"compound": "Cc1n[nH]c(C)c1-c1ccc(NC(=O)[C@@H](NC(=O)c2ccnn2CC#N)C(C2CC2)C2CC2)cc1", "note": "[Example 207, 2-(cyanomethyl)-N-[(1S)-1-(dicyclopropylmethyl)-2-[4-(3,5-dimethyl-1H-pyrazol-4-yl)anilino]-2-oxo-ethyl]pyrazole-3-carboxamide]", "EC50": "100 to 1000"}
{"compound": "Cc1n[nH]c(C)c1-c1ccc(NC(=O)[C@@H](NC(=O)c2ncnn2C)C(C2CC2)C2CC2)cc1", "note": "[Example 163, N-[(1S)-1-(dicyclopropylmethyl)-2-[4-(3,5-dimethyl-1H-pyrazol-4-yl)anilino]-2-oxo-ethyl]-2-methyl-1,2,4-triazole-3-carboxamide]", "EC50": "> 1000"}
{"compound": "Cc1n[nH]c(C)c1-c1ccc(NC(=O)[C@@H](NC(=O)c2ccnn2C)C2CCCCC2)cc1", "note": "[Example 1, N-[(1S)-1-cyclohexyl-2-[4-(3,5-dimethyl-1H-pyrazol-4-yl)anilino]-2-oxo-ethyl]-2-methyl-pyrazole-3-carboxamide]", "EC50": "100 to 1000"}
{"compound": "Cc1n[nH]c(C)c1-c1ccc(NC(=O)[C@@H](NC(=O)c2conc2C(C)C)C2CCCCC2)cc1", "note": "[Example 277, N-[(1S)-1-cyclohexyl-2-[4-(3,5-dimethyl-1H-pyrazol-4-yl)anilino]-2-oxo-ethyl]-3-isopropyl-isoxazole-4-carboxamide]", "EC50": "< 100"}
{"compound": "Cc1n[nH]c(C)c1-c1ccc(NC(=O)C(NC(=O)c2ccnn2C)C(c2ccccc2)C2CC2)cc1", "note": "(single isomer, unassigned) [Example 304, N-[1-[cyclopropyl(phenyl)methyl]-2-[4-(3,5-dimethyl-1H-pyrazol-4-yl)anilino]-2-oxo-ethyl]-2-methyl-pyrazole-3-carboxamide]", "EC50": "> 1000"}
{"compound": "Cc1n[nH]c(C)c1-c1ccc(NC(=O)[C@@H](NC(=O)c2ncnn2C(C)C)C(C2CC2)C2CC2)cc1", "note": "[Example 162, N-[(1S)-1-(dicyclopropylmethyl)-2-[4-(3,5-dimethyl-1H-pyrazol-4-yl)anilino]-2-oxo-ethyl]-2-isopropyl-1,2,4-triazole-3-carboxamide]", "EC50": "100 to 1000"}
{"compound": "Cc1n[nH]c(C)c1-c1ccc(NC(=O)[C@H](Cc2ccccc2Cl)NC(=O)c2ccnn2C)cc1", "note": "[Example 25]", "EC50": "> 1000"}
{"compound": "Cc1n[nH]c(C)c1-c1ccc(NC(=O)[C@@H](NC(=O)c2nccn2C)C2CCCCC2)cc1", "note": "[Example 275, N-[(1S)-1-cyclohexyl-2-[4-(3,5-dimethyl-1H-pyrazol-4-yl)anilino]-2-oxo-ethyl]-1-methyl-imidazole-2-carboxamide]", "EC50": "> 1000"}
{"compound": "Cc1n[nH]c(C)c1-c1ccc(NC(=O)[C@@H](NC(=O)Cn2ccnc2C)C2CCCCC2)cc1", "note": "[Example 53, (2S)-2-cyclohexyl-N-[4-(3,5-dimethyl-1H-pyrazol-4-yl)phenyl]-2-[[2-(2-methylimidazol-1-yl)acetyl]amino]acetamide]", "EC50": "> 1000"}
{"compound": "Cc1n[nH]c(C)c1-c1ccc(NC(=O)[C@@H](NC(=O)c2ccnn2CCO)C(C2CC2)C2CC2)cc1", "note": "[Example 183, N-[(1S)-1-(dicyclopropylmethyl)-2-[4-(3,5-dimethyl-1H-pyrazol-4-yl)anilino]-2-oxo-ethyl]-2-(2-hydroxyethyl)pyrazole-3-carboxamide]", "EC50": "100 to 1000"}
{"compound": "Cc1n[nH]c(C)c1-c1ccc(NC(=O)C(NC(=O)c2ccnn2C(C)C)C(C2CC(F)(F)C2)C2CC(F)(F)C2)cc1", "note": "(stereo not shown) [Example 295, N-[1-[bis(3,3-difluorocyclobutyl)methyl]-2-[4-(3,5-dimethyl-1H-pyrazol-4-yl)anilino]-2-oxo-ethyl]-2-isopropyl-pyrazole-3-carboxamide]", "EC50": "100 to 1000"}
{"compound": "Cc1n[nH]c(C)c1-c1ccc(NC(=O)[C@@H](NC(=O)c2ccnn2C)[C@H]2CCCC(F)(F)C2)cc1", "note": "[Example 19, N-[(1S)-1-[(1S)-3,3-difluorocyclohexyl]-2-[4-(3,5-dimethyl-1H-pyrazol-4-yl)anilino]-2-oxo-ethyl]-2-methyl-pyrazole-3-carboxamide]", "EC50": "100 to 1000"}
{"compound": "Cc1n[nH]c(C)c1-c1ccc(NC(=O)C(NC(=O)c2ccnn2C(C)C)C(C2CCC2)C2CCC2)cc1", "note": "(single isomer, unassigned) [Example 40, N-[1-[di(cyclobutyl)methyl]-2-[4-(3,5-dimethyl-1H-pyrazol-4-yl)anilino]-2-oxo-ethyl]-2-isopropyl-pyrazole-3-carboxamide]", "EC50": "100 to 1000"}
{"compound": "CCn1nccc1C(=O)N[C@H](C(=O)Nc1ccc(-c2c(C)n[nH]c2C)cc1)C(C1CCC1)C1CCC1", "note": "[Example 36]", "EC50": "< 100"}
{"compound": "Cc1cnccc1-c1ccc(NC(=O)[C@@H](NC(=O)c2ccnn2C(C)C)C(C2CC2)C2CC2)cc1", "note": "[Example 405, N-[(1S)-1-(dicyclopropylmethyl)-2-[4-(3-methyl-4-pyridyl)anilino]-2-oxo-ethyl]-2-isopropyl-pyrazole-3-carboxamide]", "EC50": "< 100"}
{"compound": "Cc1n[nH]c(C)c1-c1ccc(NC(=O)[C@@H](NC(=O)c2cnnn2-c2ccccc2)C2CCCCCC2)cc1", "note": "[Example 63, N-[(1S)-1-cycloheptyl-2-[4-(3,5-dimethyl-1H-pyrazol-4-yl)anilino]-2-oxo-ethyl]-3-phenyl-triazole-4-carboxamide]", "EC50": "< 100"}
{"compound": "CCn1nccc1C(=O)N[C@H](C(=O)Nc1ccc(-c2c(C)n[nH]c2C)cc1)C(C)C1CCC1", "note": "(single isomer, unassigned) [Example 193]", "EC50": "100 to 1000"}
{"compound": "Cn1cncc1-c1ccc(NC(=O)[C@@H](NC(=O)OC(C)(C)C)C(c2ccccc2)c2ccccc2)cc1", "note": "[Example 101, tert-butyl N-[(1S)-1-benzhydryl-2-[4-(3-methylimidazol-4-yl)anilino]-2-oxo-ethyl]carbamate]", "EC50": "> 1000"}
{"compound": "Cc1n[nH]c(C)c1-c1ccc(NC(=O)[C@@H](NC(=O)c2ccnn2C2CCC2)C(C2CC2)C2CC2)cc1", "note": "[Example 114, 2-cyclobutyl-N-[(1S)-1-(dicyclopropylmethyl)-2-[4-(3,5-dimethyl-1H-pyrazol-4-yl)anilino]-2-oxo-ethyl]pyrazole-3-carboxamide]", "EC50": "< 100"}
{"compound": "Cc1n[nH]c(C)c1-c1ccc(NC(=O)[C@@H](NC(=O)c2ccnn2C(C)CO)C(C)C(C)(C)C)cc1", "note": "(single isomer, unassigned) [Example 175]", "EC50": "100 to 1000"}
{"compound": "Cc1n[nH]c(C)c1-c1ccc(NC(=O)[C@@H](NC(=O)c2ccnn2C(C)C)C(C2CC2)C2CC2)cc1O", "note": "[Example 410, N-[(1S)-1-(Dicyclopropylmethyl)-2-[4-(3,5-dimethyl-1H-pyrazol-4-yl)-3-hydroxy-anilino]-2-oxo-ethyl]-2-isopropyl-pyrazole-3-carboxamide]", "EC50": "< 100"}
